Laboratory results: patent US20240376432A1, “METHOD FOR PREPARING PLURIPOTENT STEM CELL-DERIVED HEMATOPOIETIC STEM CELL AND METHOD FOR CONSTRUCTING HUMANIZED MOUSE MODEL BY USING HEMATOPOIETIC STEM CELL THUS PREPARED” (SUNGKWANG MEDICAL FOUNDATION, priority 2021, published 2024)

Test system: human pluripotent stem cells (hPSCs)
Assay: Differentiation of human pluripotent stem cells into hematopoietic stem cells, proportion of CD34+CD45+ cells by FACS
Assay type: cell-based
Protocol: Specific experiments on the method of preparing human hematopoietic stem cells were performed as follows. First, isolated human pluripotent stem cells (hPSCs) were maintained in stemMACS-IPS brew medium for 2 days. The differentiation base culture medium consisted of the following composition: Stempro 34-SFM (+stempro sup)+200 ug/ml of human Transferrin +2 mM of L-glutamine+0.5 mM of L-ascorbic acid+0.45 mM of MTG (1-thioglycerol) +1% of penicillin/streptomycin. To induce mesodermfrom the isolated hPSCs, treatment was performed with CHIR99021 (5 uM) alone, a representative example of a GSK inhibitor, for about 2 days. Next, treatment was performed with 50 ng/ml of BMP4, 50 ng/ml of VEGF, and 100 ng/ml of bFGF for 2 days to induce hemangioblasts. Next, 50 ng/ml of VEGF, 50 ng/ml of bFGF, and SB-431542 (10 μM) as representative examples of TGF-beta inhibitors and 1 μM of retinoic acid (RA) were added and cultured for about 1 day, and 0.1% (w/v) of PVA, 50 ng/ml of stem cell factor (SCF), and 10 ng/ml of bFGF were added and cultured for about 11 days (FIG. 2).
Specifically, it is widely known that vascular endothelial growth factor (VEGF) may be used to induce mesoderm and induce and maintain hemangioblasts (precursors of HSCs), and has been mainly used during the period of inducing hematopoietic stem cells. Therefore, to determine what effect it will have on the final hematopoietic stem cell generation efficiency when VEGF is excluded from the induction of hematopoietic stem cells, the results of hematopoietic stem cell differentiation according to the presence or absence of VEGF (10 ng/ml) were confirmed under the same conditions (50 ng/ml of SCF, 10 ng/ml of bFGF, 20 ng/ml of IL-3 and 10 ng/ml of IL-6) (FIG. 3A).
To confirm the differentiation results, Fluorescence Activated Cell Sorting (FACS) was performed to confirm the proportion of CD34^+CD45^+ cells. […] After washing away the remaining antibodies with staining buffer, 200 μl of staining buffer was added again and analyzed using a flow cytometer.
Specifically, in the existing method, treatment was performed with bone morphogenetic protein 4 (BMP4), VEGF, and CHIR99021 to induce mesoderm. However, it was determined that the above conditions were not compatible with the sequence of the process for differentiating stem cells into hematopoietic stem cells. […]
For this purpose, the efficiency of hematopoietic stem cell differentiation when treated with SB-431542 (SB4), a representative example of a TGF-beta inhibitor, in addition to VEGF and basic fibroblast growth factor (bFGF) for various periods of time, was determined (FIG. 5A). […]

Cc1cnc(-c2cnc(NCCNc3ccc(C#N)cn3)nc2-c2ccc(Cl)cc2Cl)[nH]1 [CHIR99021, 6-[[2-[[4-(2,4-Dichlorophenyl)-5-(5-methyl-1H-imidazol-2-yl)-2-pyrimidinyl]amino]ethyl]amino]-3-pyridinecarbonitrile]
ratio of CD34+CD45+ cells (CHIR99021 alone in mesoderm induction, compared with BMP4 (5 ng/ml), VEGF (50 ng/ml) and CHIR99021, FIG. 4B): significantly superior

NC(=O)c1ccc(-c2nc(-c3ccc4c(c3)OCO4)c(-c3ccccn3)[nH]2)cc1 [SB4]
hematopoietic stem cell differentiation efficiency (EHT induction, SB4 for a long period of time in addition to VEGF and bFGF, FIG. 5B): significantly reduced
proportion of CD34+CD45+ cells (EHT induction, SB4 for less than 24 hours in addition to VEGF and bFGF, FIG. 5B): significantly superior

VEGF
ratio of CD34+CD45+ cells (VEGF (10 ng/ml) present or absent during hematopoietic stem cell induction, with 50 ng/ml SCF, 10 ng/ml bFGF, 20 ng/ml IL-3, 10 ng/ml IL-6, FIG. 3B): excluding VEGF from the induction of hematopoietic stem cells was significantly superior
